Results taken from BindingDB's records for doi:10.1074/jbc.M114.557629 (Weizmann Institute of Science, 2014).
pKi: −log10 of the molar value.

Tests used:
[1] = target: Sodium/potassium-transporting ATPase subunit alpha-1/beta-1 (Homo sapiens, UniProt P05023+P05026); assay: Na,K-ATPase Inhibition Assay
[2] = target: Sodium/potassium-transporting ATPase subunit alpha-2/beta-1 (Homo sapiens, UniProt P05026+P50993); assay: Na,K-ATPase Inhibition Assay

Row | Structure (SMILES) | pKi [1] | pKi [2]
1 | CC1CN(C(C)C(N)=O)CCC(O[C@@H]2[C@H](C)O[C@@H](O[C@@H]3[C@H](C)O[C@@H](O[C@H]4CC[C@@]5(C)C(CCC6C5C[C@H](O)[C@]5(C)[C@@H](C7=CC(=O)OC7)CC[C@]65O)C4)C[C@@H]3O)C[C@@H]2O)O1 (some centres not stated) [DAlaN (5)] | 6.63 | 7.17
2 | CC1CN(C)CCC(O[C@@H]2[C@H](C)O[C@@H](O[C@@H]3[C@H](C)O[C@@H](O[C@H]4CC[C@@]5(C)C(CCC6C5C[C@H](O)[C@]5(C)[C@@H](C7=CC(=O)OC7)CC[C@]65O)C4)C[C@@H]3O)C[C@@H]2O)O1 (some centres not stated) [DMe (11)] | 7.00 | 7.81
3 | CC1CN(C(CO)C(N)=O)CCC(O[C@@H]2[C@H](C)O[C@@H](O[C@@H]3[C@H](C)O[C@@H](O[C@H]4CC[C@@]5(C)C(CCC6C5C[C@H](O)[C@]5(C)[C@@H](C7=CC(=O)OC7)CC[C@]65O)C4)C[C@@H]3O)C[C@@H]2O)O1 (some centres not stated) [DSerN (7)] | 6.62 | 6.84
4 | C[C@H]1O[C@@H](O[C@H]2[C@@H](O)C[C@H](O[C@H]3CC[C@@]4(C)[C@H](CC[C@@H]5[C@@H]4C[C@@H](O)[C@]4(C)[C@@H](C6=CC(=O)OC6)CC[C@]54O)C3)O[C@@H]2C)C[C@H](O)[C@@H]1O [Dbis] | 6.71 | 7.13
5 | CC1CN(C(CO)C(=O)O)CCC(O[C@@H]2[C@H](C)O[C@@H](O[C@@H]3[C@H](C)O[C@@H](O[C@H]4CC[C@@]5(C)C(CCC6C5C[C@H](O)[C@]5(C)[C@@H](C7=CC(=O)OC7)CC[C@]65O)C4)C[C@@H]3O)C[C@@H]2O)O1 (some centres not stated) [DSer (6)] | 6.50 | 6.84
6 | CC1CN(C(CC(=O)O)CC(=O)O)CCC(O[C@@H]2[C@H](C)O[C@@H](O[C@@H]3[C@H](C)O[C@@H](O[C@H]4CC[C@@]5(C)C(CCC6C5C[C@H](O)[C@]5(C)[C@@H](C7=CC(=O)OC7)CC[C@]65O)C4)C[C@@H]3O)C[C@@H]2O)O1 (some centres not stated) [DbisGly (14)] | 7.10 | 7.46
7 | CC1CN(O)CCC(O[C@@H]2[C@H](C)O[C@@H](O[C@@H]3[C@H](C)O[C@@H](O[C@H]4CC[C@@]5(C)C(CCC6C5C[C@H](O)[C@]5(C)[C@@H](C7=CC(=O)OC7)CC[C@]65O)C4)C[C@@H]3O)C[C@@H]2O)O1 (some centres not stated) [DOH (1)] | 6.51 | 6.87
8 | CC1CN(CCC(N)=O)CCC(O[C@@H]2[C@H](C)O[C@@H](O[C@@H]3[C@H](C)O[C@@H](O[C@H]4CC[C@@]5(C)C(CCC6C5C[C@H](O)[C@]5(C)[C@@H](C7=CC(=O)OC7)CC[C@]65O)C4)C[C@@H]3O)C[C@@H]2O)O1 (some centres not stated) [DPrN (9)] | 6.60 | 7.33
9 | CC1CN(CC(=O)O)CCC(O[C@@H]2[C@H](C)O[C@@H](O[C@@H]3[C@H](C)O[C@@H](O[C@H]4CC[C@@]5(C)C(CCC6C5C[C@H](O)[C@]5(C)[C@@H](C7=CC(=O)OC7)CC[C@]65O)C4)C[C@@H]3O)C[C@@H]2O)O1 (some centres not stated) [DGly (2)] | 6.91 | 7.60
10 | CCN1CCC(O[C@@H]2[C@H](C)O[C@@H](O[C@@H]3[C@H](C)O[C@@H](O[C@H]4CC[C@@]5(C)C(CCC6C5C[C@H](O)[C@]5(C)[C@@H](C7=CC(=O)OC7)CC[C@]65O)C4)C[C@@H]3O)C[C@@H]2O)OC(C)C1 (some centres not stated) [DEt (12)] | 7.28 | 7.73
11 | C[C@]12CC[C@H](O)C[C@H]1CC[C@@H]1[C@@H]2C[C@@H](O)[C@]2(C)[C@@H](C3=CC(=O)OC3)CC[C@]12O [CS337] | 6.86 | 6.89
12 | CC1CN(CC(F)(F)F)CCC(O[C@@H]2[C@H](C)O[C@@H](O[C@@H]3[C@H](C)O[C@@H](O[C@H]4CC[C@@]5(C)C(CCC6C5C[C@H](O)[C@]5(C)[C@@H](C7=CC(=O)OC7)CC[C@]65O)C4)C[C@@H]3O)C[C@@H]2O)O1 (some centres not stated) [DMeCF3 (13)] | 6.70 | 7.36
13 | COC(=O)CN1CCC(O[C@@H]2[C@H](C)O[C@@H](O[C@@H]3[C@H](C)O[C@@H](O[C@H]4CC[C@@]5(C)C(CCC6C5C[C@H](O)[C@]5(C)[C@@H](C7=CC(=O)OC7)CC[C@]65O)C4)C[C@@H]3O)C[C@@H]2O)OC(C)C1 (some centres not stated) [DGlMe (3)] | 6.27 | 6.89
14 | CC1CN(NC(N)=O)CCC(O[C@@H]2[C@H](C)O[C@@H](O[C@@H]3[C@H](C)O[C@@H](O[C@H]4CC[C@@]5(C)C(CCC6C5C[C@H](O)[C@]5(C)[C@@H](C7=CC(=O)OC7)CC[C@]65O)C4)C[C@@H]3O)C[C@@H]2O)O1 (some centres not stated) [DSCar (8)] | 6.99 | 7.70
15 | CC1CN(CC(N)=O)CCC(O[C@@H]2[C@H](C)O[C@@H](O[C@@H]3[C@H](C)O[C@@H](O[C@H]4CC[C@@]5(C)C(CCC6C5C[C@H](O)[C@]5(C)[C@@H](C7=CC(=O)OC7)CC[C@]65O)C4)C[C@@H]3O)C[C@@H]2O)O1 (some centres not stated) [DGlyN (4)] | 6.82 | 7.69
16 | CC1CN(CCN)CCC(O[C@@H]2[C@H](C)O[C@@H](O[C@@H]3[C@H](C)O[C@@H](O[C@H]4CC[C@@]5(C)C(CCC6C5C[C@H](O)[C@]5(C)[C@@H](C7=CC(=O)OC7)CC[C@]65O)C4)C[C@@H]3O)C[C@@H]2O)O1 (some centres not stated) [DEtDA (10)] | 7.16 | 7.78
